Test results published in patent US20220152072A1, “Selective Inhibitors Of Protein Arginine Methyltransferase 5 (PRMT5)” (Prelude Therapeutics, Incorporated, priority 2019, published 2022).

Columns and labels:
[1] = In vivo pharmacokinetics in rat, i.v. and p.o.; conditions: rat (SD, male, non-fasted), average, N=3
Protocol: In a rat (SD, male, non-fasted) non-crossover PK study, Example 47 was dosed at 1 mg/kg (DMA: 20% HPBCD=5:95, solution) via i.v. administration (N=3) and 1 mg/kg (0.5% Na CMC+0.5% Tween80, solution) via oral gauge (p.o.) (N=3).

[2] = target: PRMT5/MEP50 complex (Homo sapiens, UniProt O14744); assay: Biochemical assay: PRMT5/MEP50 methylation of histone H2A with 3H-SAM, filter plate scintillation; conditions: PRMT5/MEP50 5 nM, histone H2A 5 μM, SAM 1 μM
Sequence of PRMT5/MEP50 complex (O14744 whole entry, species assumed): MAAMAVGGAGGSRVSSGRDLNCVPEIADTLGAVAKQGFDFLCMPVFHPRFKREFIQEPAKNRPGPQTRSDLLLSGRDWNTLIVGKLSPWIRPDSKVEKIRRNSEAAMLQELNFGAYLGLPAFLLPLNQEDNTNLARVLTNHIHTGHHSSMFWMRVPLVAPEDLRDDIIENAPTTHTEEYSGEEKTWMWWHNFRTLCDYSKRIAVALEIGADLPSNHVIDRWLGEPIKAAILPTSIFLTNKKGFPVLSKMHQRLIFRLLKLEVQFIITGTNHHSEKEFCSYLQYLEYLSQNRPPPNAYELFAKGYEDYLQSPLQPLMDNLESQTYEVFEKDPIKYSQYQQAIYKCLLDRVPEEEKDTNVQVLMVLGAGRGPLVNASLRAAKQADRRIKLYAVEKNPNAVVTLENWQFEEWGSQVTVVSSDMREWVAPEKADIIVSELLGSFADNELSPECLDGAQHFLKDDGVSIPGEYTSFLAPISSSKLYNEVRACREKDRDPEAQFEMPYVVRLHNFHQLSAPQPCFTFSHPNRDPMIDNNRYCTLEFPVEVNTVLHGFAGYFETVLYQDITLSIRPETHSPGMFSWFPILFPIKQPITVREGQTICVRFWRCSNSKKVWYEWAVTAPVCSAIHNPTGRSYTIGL
Sequence of PRMT5/MEP50 complex (Q9BQA1 whole entry partner, species assumed): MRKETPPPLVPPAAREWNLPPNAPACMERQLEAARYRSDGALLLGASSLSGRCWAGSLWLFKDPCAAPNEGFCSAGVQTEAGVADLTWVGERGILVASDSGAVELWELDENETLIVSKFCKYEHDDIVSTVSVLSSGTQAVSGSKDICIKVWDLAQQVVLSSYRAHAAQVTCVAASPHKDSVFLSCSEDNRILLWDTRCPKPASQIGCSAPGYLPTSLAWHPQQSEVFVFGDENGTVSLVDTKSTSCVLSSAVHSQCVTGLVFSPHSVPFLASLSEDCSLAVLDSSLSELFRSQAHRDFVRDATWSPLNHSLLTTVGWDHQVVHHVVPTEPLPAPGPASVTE
Protocol: Compounds were solubilized and 3-fold diluted in 100% DMSO. […] Standard reactions were performed in a total volume of 50 μl in assay buffer, with histone H2A (5 μM final) as substrate. To this was added the PRMT5/MEP50 complex diluted to provide a final assay concentration of 5 nM and the compounds were allowed to preincubate for 15 to 20 minutes at room temperature. The reaction was initiated by adding S-[3H-methyl]-adenosyl-L-methionine (PerkinElmer) to final concentration of 1 μM. Following a 60 minutes incubation at 30° C., the reaction was stopped by adding 100 μL of 20% TCA. Each reaction was spotted onto filter plate (MultiScreen FB Filter Plate, Millipore), and washed 5 times with PBS buffer, Scintillation fluid was added to the filter plate and read in a scintillation counter. IC50 values were determined by fitting the data to the standard 4 parameters with Hill Slope using GraphPad Prism software.

[3] = FaSSIF solubility (HPLC); conditions: positive control, range
Protocol: Compounds were first dispersed in freshly prepared FaSSIF (http://biorelevant.com/site_media/upload/documents/How_to_make_FaSSIF_FeSSIF_and_FaSSGF.pdf) buffer in 1 mg/mL respectively, and the standard samples were prepared by preparing 1 mg/mL of test compounds in DMSO. The compounds were then sufficient mixed by vortex mixer for 30 sec, and agitated at 25° C. using 300 rpm form 4 hour in thermo mixer. After incubation, the prepared samples were centrifuged at 10000 rpm for 10 min to remove the undissolved solid, the resulting supernatants were applied to HPLC.
S=Csmp=Cstd*(Asmp/Astd)*(Vstd/Vsmp)
Where C is the sample concentration in μg/mL, A is the peak area, and V is the injection volume.

`C[C@@]1(O)[C@@H]([C@H](O)c2ccc(Cl)c(Cl)c2)O[C@@H](n2ccc3c(N)ncnc32)[C@@H]1O` [Example 47, (2R,3S,4R,5R)-5-(4-amino-7H-pyrrolo[2,3-d]pyrimidin-7-yl)-2-((R)-(3,4-dichlorophenyl) (hydroxy)methyl)-3-methyltetrahydrofuran-3,4-diol] gave a T1/2 ([1]; 1 mg/kg i.v.) of 4.1 h, a Vss ([1]; 1 mg/kg i.v.) of 3.1 L/kg and a blood clearance ([1]; 1 mg/kg i.v.) of 8.8 mL/min/kg. The “dose normalized AUC” value ([1]; 1 mg/kg p.o.) was 3246 ng·kg·h/mL/mg.

Work on `C[C@@]1(O)[C@@H]([C@@H](O)c2ccc(Cl)c(Cl)c2)O[C@@H](n2ccc3c(N)ncnc32)[C@@H]1O` [Example 66, (2R,3S,4R,5R)-5-(4-amino-7H-pyrrolo[2,3-d]pyrimidin-7-yl)-2-((S)-(3,4-dichlorophenyl) (hydroxy)methyl)-3-methyltetrahydrofuran-3,4-diol] yielded an IC50 [2] of 707 nM.

With `CC(=O)CC(c1ccccc1)c1c(O)c2ccccc2oc1=O` (stereo not drawn) [Warfarin] the “FaSSIF solubility (positive controls)” value [3] was 10 to 25 µg/mL.
